# “Also recorded” adds a separate entry of the source.
# How the values were obtained:
# [1] = tested on: δ and εPKC isozymes; assay: PKC isozyme translocation and degradation in cardiac myocytes; type: cell-based, rat
# Excerpt: This peptide-induced translocation was followed by degradation of δ and εPKC isozymes.
# [2] = tested on: PKC-mediated germinal vesicle breakdown (GVBD) in Xenopus oocytes; assay: PKC-mediated Xenopus oocyte maturation (germinal vesicle breakdown, GVBD) after peptide microinjection; type: cell-based
# Protocol: Exposure to insulin induces maturation in Xenopus oocytes via a PKC-dependent pathway (Smith, et al., 1992). The maturation response may be quantified by monitoring the appearance of a white spot in the animal hemisphere of the oocyte, indicating germinal vesicle breakdown (GVBD) and maturation. To assess the effects of RACK1 WD-40-derived peptides on insulin-induced PKC-mediated maturation, 50 nl of a 20 mM NaCl solution containing the indicated peptides [peptide I (SEQ ID NO:1; .circle-solid.), peptide rVI (SEQ ID NO:7; .box-solid.), or injection solution (.quadrature.)] […] One hour following the peptide injections, the oocytes were exposed to a solution containing insulin (8.25 μg/ml) for 2 minutes (t=0). 10-15 oocytes were used for each sample.
# The data, representative of three independent experiments, are expressed as the percent of oocytes with GVBD following insulin exposure and are plotted as a function of time in FIG. 5.
# [3] = tested on: PKC; assay: PKC autophosphorylation; type: biochemical, rat; details: 10 μM peptide; no PS, DG, calcium
# Protocol: Rat brain PKC (~10 nM) was incubated with mild agitation in a final volume of 250 μl of overlay buffer, as in Example 1 either with anti-βPKC pseudosubstrate antibodies (1:10 dilution, Life Technologies, Gaithersburg, Md.) or with the indicated peptide (10 μM). Where indicated, PS (50 μg/ml), DG (0.8 μg/ml) and CaCl2 (1 mM) were also added. The amount of autophosphorylation was determined after 2 hours for the reaction with the anti-pseudosubstrate antibodies, or after 15 minutes for the other samples. 50 μl of a buffer comprised of 20 mM Tris-HCl (pH 7.5), 20 mM MgCl2, 20 μM ATP and 5 μci/ml [γ-^32 P]ATP. The mixture was incubated for 15 minutes at room temperature and the reaction was stopped by adding 60 μl sample buffer (see Example 9). The samples were then boiled for 10 minutes, loaded onto a 10% SDS-PAGE mini gel and electrophoresed. The gel was fixed with 50% methanol and 10% acetic acid for 1 hour, and the autophosphorylation of PKC was determined by autoradiography.
# [4] = target: T1, βPKC (Rattus norvegicus, UniProt P68403); assay: Sensitivity of βPKC to Arg-C endopeptidase (nicking); type: biochemical; set-up: All the solutions contained 5 nM rat brain PKC in peptide overlay buffer; from tissue; host or cells: rat brain; details: 2.5 μg/ml PS and 50 μM CaCl2; peptide 10 μM; Arg-C 5 units/ml
# Excerpt: Upon activation of PKC, a pseudosubstrate autoinhibitory sequence at the N-terminus of the molecule dissociates from the catalytic site and becomes sensitive to endopeptidase Arg-C (Orr, et al.). In the absence of PKC activators, exposure of the 80 kDa βPKC to endopeptidase Arg-C has no effect on the enzyme (see FIG. 7, lane 1). In the presence of the PKC activators PS, DG and calcium, however, exposure of βPKC to Arg-C results in a "nicking" of the PKC (i.e. limited proteolysis generating a 78 kDa fragment and several small fragments (see FIG. 7, lane 2)). Continued exposure to Arg-C results in the disappearance of βPKC (Orr, et al.). The present experiment tests whether peptides derived from the WD-40 region of RACK1 alter the sensitivity of βPKC to endopeptidase Arg-C.
# The methods used to assay Arg-C sensitivity are a modification of methods described by Orr, et al. Rat brain PKC (~5 nM) was incubated at room temperature in 500 μl of 20 mM Tris-HCl buffer (pH 7.5) alone or with Arg-C (5 units/ml) in the presence or absence of the indicated peptides (final concentration 10 μM or as indicated), PS, DG, and calcium (as indicated). 50 μl aliquots were removed into 20 μl of sample buffer during the reaction as indicated (samples in all the lanes were incubated for 30 minutes, except lanes 5, and 6, which were incubated for 5 and 15 minutes, respectively). The samples were boiled for 10 minutes at 80° C. and loaded onto 8% SDS-PAGE. βPKC was detected by Western blot analysis using anti-βPKC antibodies as described in Examples 6 and 8.
# PKC was incubated for the indicated time alone (lane 1) or in the presence of Arg-C (lanes 2-9), with DG (0.8 μg/ml), PS (50 μg/ml) and CaCl2 (1 mM; lane 2), with PS (50 μg/ml) and CaCl2 (1 mM; lane 3), with PS (2.5 μg/ml) and CaCl2 (50 μM; lane 4); with PS (2.5 μg/ml), CaCl2 (50 μM) and with either peptide rVI (SEQ ID NO:7; 10 μM; lanes 5-7), control peptide (SEQ ID NO: 9; lane 8) or with peptide I (SEQ ID) NO:1; lane 9).
# [5] = target: T1, βPKC; assay: Overlay assay: binding of PKC to immobilized recombinant RACK1; set-up: from tissue; host or cells: PKC from rat brain; RACK1 made in-house in TB1 E. coli (pMAL-c2)
# Protocol: (§1) Purified recombinant RACK1 protein (100-250 μg per lane, produced as detailed in Example 2) was subjected to SDS/PAGE and blotted onto nitrocellulose membranes (Ausubel). The nitrocellulose membranes were cut into strips, which were incubated for 0.5 hr in overlay buffer (Example 1) in the presence or absence of a mixture of PKC isozymes (α, β, γ, ε and .zeta., ~10 nM each final concentration) and PKC activators (60 μg/ml phosphatidylserine (PS), 2 μg/ml diacylglycerol (DG), and 1 mM CaCl2). Unbound material was removed by five washes, 5-min each, in overlay wash buffer. Where indicated, PKC activators were present during the incubation of PKC with the nitrocellulose strips. The conditions for each sample and corresponding results are presented in part D below.
# PKC bound to RACK1 immobilized on nitrocellulose strips was detected as follows. […]
# The concentration dependence of PKC binding to RACK1 was characterized with βPKC, since this isozyme is a major component of the PKC mixture used for the overlay assay. The mean half maximal binding was ~0.375 nM, and maximal binding was ~4 nM (n=3; values reflect binding of βPKC isozyme in the presence of other PKC isozymes and was determined by scanning autoradiograms in the linear range of detection, as described in Mochly-Rosen, et al., (1991).
# [6] = tested on: PKC binding to RACK1; assay: Overlay / overlay-extraction assay: inhibition of PKC binding to recombinant RACK1 by peptides; set-up: species or system rat; details: for inhibition of the binding of PKC to RACK1, peptides rI-rVII: overlay assay, concentration not given
# Protocol: as §1
# The variation in the overlay protocol consisted of incubating the putative binding peptides with a mixture of PKC isozymes for 15 minutes at room temperature before the mixture was used to contact the nitrocellulose strips containing immobilized RACK1.
# Nitrocellulose strips containing immobilized RACK1, that had been contacted with a solution containing a mixture of PKC isozymes, were washed and the area corresponding to the 36 kDa (RACK1-containing) band was cut out. The pieces (containing PKC/RACK1 complexes) were incubated with sample buffer for 10 minutes at 80° C. The sample buffer and the nitrocellulose pieces were then placed in wells in the PAGE gel and subjected to SDS-PAGE to elute the bound proteins. The gel was blotted onto nitrocellulose and a Western blot analysis was carried out using the mixture of antibodies (specific for PKC α, β, γ, δ, ε and .zeta. isozymes) described in Example 1 part B. Bound antibodies were detected by ^125 I-protein A.
# Peptides derived from or homologous to WD-40 repeats of RACK1 were tested for their ability to inhibit PKC binding to recombinant RACK1. Binding of PKC to RACK1 was carried out using a variation of the overlay procedure described in Example 3 part B. In the experimental samples, peptides were incubated with a solution containing a mixture of rat brain PKC isozymes (~10 nM each) for 15 minutes at room temperature.
# Following completion of the modified overlay protocol, the samples were subjected to the overlay-extraction protocol detailed in part B, above.
# [7] = tested on: PKC; assay: Histone type IIIs phosphorylation by PKC; type: biochemical; details: peptide rVI 10 μM; PKC ~10 nM
# Protocol: Histone type IIIs (Sigma Chemical Company, St. Louis, Mo.) was phosphorylated by PKC (~10 nM) in the absence (lane 1) and presence of peptide rVI (10 μM) (lanes 2 and 3) and in the presence and absence of DG (0.8 μg/ml), PS (50 μg/ml) and CaCl2 (1 mM) (lane 3). The results are expressed as percentage of control that is the amount of Histone phosphorylation by PKC in the presence of DG (0.8 μg/ml), PS (50 μg/ml) and CaCl2 (1 mM). The results are the average±SEM of two independent experiments. PKC was first incubated with the peptide rVI (10 μM) for 15 minutes in overlay buffer as described above. Histone type IIIs (40 μg/ml) was added in Tris-HCl (20 mM), MgCl2 (20 mM), ATP (20 μM) and [γ-^32 P]ATP (5 μci/ml) with or without PS (50 μg/ml), DG (0.8 μg/ml) and CaCl2 (1 mM). Histone phosphorylation was determined by autoradiography as above.
# [8] = 50 μM peptide microinjected, insulin 8.25 μg/ml
# [9] = peptide introduced into cardiac myocytes
compound,measurement,setting,value
"NC[C@H](O)c1ccc(O)c(O)c1 [norepinephrine, reference compound]",translocation of δ and εPKC isozymes from the cytosolic to the particulate fraction,"[1]; NE, 2 μM",causes translocation of δ and εPKC isozymes from the cytosolic to the particulate fraction
control peptide: control peptide (SEQ ID NO:9) used as negative control (LKGKIL) [reference compound],delay to onset of maturation after exposure to insulin,[2]; [8],4 to 5 h
same,time at which plateau of GVBD is reached,[2]; [8],10 to 12 h
same,plateau of % GVBD following insulin exposure,"[2]; 50 nl of 50 μM peptide microinjected, insulin 8.25 μg/ml",85-90 % GVBD
same,induction of PKC autophosphorylation in the absence of PKC activators,[3],Neither peptide I nor control peptide induced PKC autophosphorylation
same,nicking of βPKC by Arg-C (78 kDa fragment) at low concentrations of activators,[4],nicking of βPKC did not occur
maltose binding protein,binding of PKC to control proteins,[5],did not bind PKC
peptide rI: synthetic peptide based on the corresponding region in WD-40 repeat I of RACK1 (VTQIATT),"inhibition of the binding of PKC to RACK1, peptides rI-rVII",[6],effective inhibitors
peptide rII: synthetic peptide based on the corresponding region in WD-40 repeat II of RACK1 (FVSDVVI),"inhibition of the binding of PKC to RACK1, peptides rI-rVII",[6],effective inhibitors
peptide rIII: seven amino acid peptide identical to a segment of RACK1 WD-40 repeat III (DVLSVAF),relative effectiveness in inhibiting PKC binding to RACK1,[6]; 10 μM peptide,somewhat more effective than peptide rVI
same,inhibition of PKC binding to RACK1 (FIG. 3),[6]; 10 μM peptide preincubated with PKC,inhibit the binding of PKC to RACK1
same,"inhibition of the binding of PKC to RACK1, peptides rI-rVII",[6],inhibited the binding of PKC to RACK1
same,effect on insulin-induced oocyte maturation,[2]; peptide microinjected (rVI 50 μM; rIII 50 and 500 μM),enhances insulin-induced oocyte maturation; also recorded: potentiated the effects of insulin on oocyte maturation
same,fraction of oocytes exposed to insulin that reach maturation,"[2]; peptide microinjected, insulin",~100%
same,"induction of PKC-mediated histone phosphorylation in the absence of PS, DG and calcium",[7],similarly induced histone phosphorylation
same,effect on NE-induced translocation of PKC isozymes,"[1]; norepinephrine 2 μM, peptide introduced into cardiac myocytes",further enhanced
same,degradation of δ and εPKC isozymes,[1]; [9],followed by degradation of these activated isozymes
same,translocation / distribution of δ and εPKC isozymes in the absence of hormone stimulation,[1]; [9],caused an immediate translocation of δ and εPKC isozymes
same,nicking of βPKC by Arg-C (78 kDa fragment) at low concentrations of activators,[4],resulted in the appearance of the 78 kDa nicked PKC fragment
peptide rV: synthetic peptide based on the corresponding region in WD-40 repeat V of RACK1 (GYLNTVT),"inhibition of the binding of PKC to RACK1, peptides rI-rVII",[6],lesser inhibitory effect
peptide rVII: synthetic peptide based on the corresponding region in WD-40 repeat VII of RACK1 (PQCTSLA),"inhibition of the binding of PKC to RACK1, peptides rI-rVII",[6],no inhibition
rIV: synthetic peptide based on the corresponding region in WD-40 repeat IV of RACK1 (VSCVRFS),"inhibition of the binding of PKC to RACK1, peptides rI-rVII",[6],lesser inhibitory effect

# — US6262023A, “WD-40 derived peptides and uses thereof” (The Board of Trustees of the Leland Stanford Junior …, priority 1995, dated 2001)
